Source: patent US11446298B2, “Pyrimidine derivatives” (Idorsia Pharmaceuticals Ltd, priority 2017, dated 2022)

Legend:
Type in all cases: cell-based
[1] = molecular target: T1, PTGER4 (EP4) (Homo sapiens, UniProt P35408); experiment: hEP4 b-Arrestin Assay (PathHunter HEK 293 PTGER4 b-arrestin cells, PGE2 20 nM); conditions: antagonistic activity, beta-arrestin assay, HEK 293 PTGER4 cells, PGE2 20 nM (EC80); read-out: hEP4 b-arr IC50
T1 construct: host or cells: HEK 293 (PathHunter, stably transfected)
Method: The antagonistic activities of the compounds of formula (I) on the EP2 and EP4 receptors are also determined in accordance with the following experimental method.
The assay is using the PathHunter™ HEK 293 PTGER2 and PTGER4 b-arrestin cell lines from DiscoverX. The system is based on the Enzyme Fragment Complementation Technology. Two complementing fragments of the b-galactosidase enzyme are expressed within stably transfected cells. The larger portion of b-gal, termed EA for Enzyme Acceptor, is fused to the C-terminus of b-arrestin 2. The smaller fragment, termed ProLink™ tag, is fused to PTGER2 (EP2) or PTRGER4 (EP4) at the C-terminus. Upon activation, b-arrestin is recruited which forces the interaction of ProLink and EA, allowing complementation of the two fragments of b-gal and the formation of a functional enzyme which is capable of hydrolysing the substrate and generating a chemiluminescent signal.
The HEK 293 PTGER4 b-arrestin cells (DiscoverX 93-030-4C1) are detached from culture dishes with a cell dissociation buffer (Invitrogen, 13151-014), and collected in growing medium (GM: DMEM+Glutamax-I (Invitrogen 32430)/10% FCS, 1% Penicilin/streptomycin). 5000 cells per well of a 384 well plate (white with white bottom Greiner 781080) are seeded in 20 ul per well of GM. Plate is incubated at 37° C., 5% CO2 for 24 hours.
Stock solutions of test compounds are made at a concentration of 10 mM in DMSO, and serially diluted in DMSO to concentrations required for inhibition dose response curves (tested concentration range 10 μM-2 nM or 1 μM-0.2 nM).
PGE2 (Cayman 14010, stock solution: 100 μM in DMSO) is used as agonist at 20 nM final concentration, corresponding to EC80.
Five microliters of diluted compounds are transferred into the assay plate. Plate is pre-incubated 15 minutes at 37° C. Then five microliters of PGE2 (final conc. 20 nM) are transferred into the assay plate. Plate is incubated 120 minutes at 37° C.
PathHunter Glo Detection Kit components are thawed and mix according to manufacturer's instructions: 1 part Galacton Star Substrate with 5 parts Emerald II™ Solution, and 19 parts of PathHunter Cell Assay Buffer, respectively. Twelve μl of reagent are transferred to the assay plate and incubate for 1 hour at room temperature in the dark. Luminescence counts are read on a BMG Fluostar Optima reader according to manufacturer's instructions.
For each compound concentration calculate of the percentage of activity compared to DMSO control value as average ±STDEV. (each concentration is measured in duplicate)
IC50 values and curves are generated with XLfit software (IDBS) using Dose-Response One Site model 203. When compounds were measured multiple times, mean values are given.

[2] = molecular target: T2, PTGER2 (EP2) (Homo sapiens, UniProt P43116); experiment: hEP2 b-Arrestin Assay (PathHunter HEK 293 PTGER2 b-arrestin cells, PGE2 5 μM); conditions: antagonistic activity, beta-arrestin assay, HEK 293 PTGER2 cells, PGE2 5 μM (EC80); read-out: hEP2 b-arr IC50
T2 construct: host or cells: HEK 293 (PathHunter, stably transfected)
Procedure, shortened: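 PathHunter enzyme-fragment complementation in HEK 293 cells: compounds (10 μM-2 nM or 1 μM-0.2 nM) pre-incubated 15 min at 37 °C, then 5 μM PGE2 (EC80) for 120 min at 37 °C. Chemiluminescence read after 1 h detection; IC50 from duplicate dose-response fits, means of repeats.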

[3] = molecular target: T3, EP2 (Homo sapiens, UniProt P43116); experiment: hEP2 cAMP Assay (SF295 glioblastoma cells, HTRF cAMP, PGE2 75 nM); conditions: antagonistic activity, PGE2 75 nM (EC80)
T3 construct: SF295 glioblastoma cells express high endogenous EP2 and no EP4; host or cells: SF295 glioblastoma cells
Procedure, shortened: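 IC50 values derive from duplicate-point curves of percent cAMP relative to DMSO, read by HTRF (665/620 nm) against a cAMP calibrator. Compounds (30 μM to 0.01 nM ranges) were given 45 min at room temperature before 30 min with 75 nM PGE2, in EP2-only SF295 cells with 2 mM IBMX.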

[4] = molecular target: T4, EP4 (Homo sapiens, UniProt P35408); experiment: hEP4 cAMP Assay (BT549 breast cancer cells, HTRF cAMP, PGE2 6 nM); conditions: antagonistic activity, PGE2 6 nM (EC80)
T4 construct: BT549 breast cancer cells, express high endogenous EP4 levels and very low EP2 levels; host or cells: BT549 breast cancer cells
Procedure, shortened: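 Antagonism is measured as inhibition of PGE2 (6 nM final, EC80) cAMP accumulation in EP4-expressing BT549 breast cancer cells, after a 45 min room-temperature compound pre-incubation and 30 min agonist step, with 2 mM IBMX present. HTRF ratio gives cAMP relative to DMSO; IC50 fitted, means over repeat runs.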

T3 sequence (P43116 whole entry): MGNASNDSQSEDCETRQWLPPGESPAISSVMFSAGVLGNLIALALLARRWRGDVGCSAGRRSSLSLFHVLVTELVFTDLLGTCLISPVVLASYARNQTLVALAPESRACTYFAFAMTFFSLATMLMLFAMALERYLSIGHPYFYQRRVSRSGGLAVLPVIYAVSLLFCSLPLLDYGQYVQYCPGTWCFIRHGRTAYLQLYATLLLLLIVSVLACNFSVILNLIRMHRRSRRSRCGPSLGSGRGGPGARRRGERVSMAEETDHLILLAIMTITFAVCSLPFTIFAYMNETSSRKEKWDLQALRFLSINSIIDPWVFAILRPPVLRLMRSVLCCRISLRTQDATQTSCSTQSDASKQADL
T2 sequence (P43116 whole entry): as above
T4 sequence (P35408 whole entry): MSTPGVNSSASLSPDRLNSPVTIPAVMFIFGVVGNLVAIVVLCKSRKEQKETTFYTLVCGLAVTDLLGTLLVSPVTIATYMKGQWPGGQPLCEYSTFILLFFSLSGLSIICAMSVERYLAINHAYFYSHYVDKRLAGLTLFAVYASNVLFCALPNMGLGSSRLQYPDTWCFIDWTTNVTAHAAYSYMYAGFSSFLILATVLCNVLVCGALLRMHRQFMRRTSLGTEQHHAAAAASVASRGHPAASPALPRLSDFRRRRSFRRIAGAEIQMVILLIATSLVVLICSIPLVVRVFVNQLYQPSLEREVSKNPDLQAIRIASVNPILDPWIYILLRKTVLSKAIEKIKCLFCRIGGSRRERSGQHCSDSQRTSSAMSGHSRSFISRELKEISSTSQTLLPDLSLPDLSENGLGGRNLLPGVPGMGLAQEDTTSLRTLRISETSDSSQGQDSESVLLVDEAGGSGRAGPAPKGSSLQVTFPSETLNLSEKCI
T1 sequence (P35408 whole entry): as above

Row | Structure (SMILES) | IC50 [1] | IC50 [2] | IC50 [3] | IC50 [4]
1 | CCOc1cc(-c2cc(NCCc3c(OC)ccc4ccccc34)ncn2)ccc1-c1noc(=S)[nH]1 [Example 189, 3-(2-Ethoxy-4-{6-[2-(2-methoxy-naphthalen-1-yl)-ethylamino]-pyrimidin-4-yl}-phenyl)-[1,2,4]-oxadiazole-5(4H)-thione] | 16 nM | 5 nM | – | –
2 | CCOc1cc(-c2cc(NCCc3c(OC)ccc4sccc34)ncn2)ccc1CC(=O)O [Example 166, (2-Ethoxy-4-{6-[2-(5-methoxy-benzo[b]thiophen-4-yl)-ethylamino]-pyrimidin-4-yl}-phenyl)-acetic acid] | 216 nM | 51 nM | – | –
3 | CCOc1cc(-c2cc(NCCc3c(OC)ccc4sccc34)ncn2)ccc1C(=O)O [Example 185, 2-Ethoxy-4-{6-[2-(5-methoxy-benzo[b]thiophen-4-yl)-ethylamino]-pyrimidin-4-yl}-benzoic acid] | 200 nM | 14 nM | – | –
4 | CCOc1cc(-c2cc(NCCc3c(OCC)ccc4sccc34)ncn2)ccc1C(=O)O [Example 187, 2-Ethoxy-4-{6-[2-(5-ethoxy-benzo[b]thiophen-4-yl)-ethylamino]-pyrimidin-4-yl}-benzoic acid] | 563 nM | 10 nM | – | –
5 | CCOc1cc(-c2cc(NCCc3c(OC)ccc4ccccc34)ncn2)ccc1Cc1noc(=O)[nH]1 [Example 191, 3-(2-Ethoxy-4-{6-[2-(2-methoxy-naphthalen-1-yl)-ethylamino]-pyrimidin-4-yl}-benzyl)-[1,2,4]oxadiazol-5(4H)-one] | 219 nM | 23 nM | – | –
6 | COc1ccc2c(ccn2C)c1CCNc1cc(-c2ccc(C(=O)O)c(SC)c2)ncn1 [Example 175, 4-{6-[2-(5-Methoxy-1-methyl-1H-indol-4-yl)-ethylamino]-pyrimidin-4-yl}-2-methylsulfanyl-benzoic acid] | 245 nM | 3 nM | – | –
7 | CCOc1cc(-c2cc(NCCc3cccc4c(F)cccc34)ncn2)ccc1C(=O)O [Example 183, 2-Ethoxy-4-{6-[2-(5-fluoro-naphthalen-1-yl)-ethylamino]-pyrimidin-4-yl}-benzoic acid] | 701 nM | 60 nM | – | –
8 | CSc1cc(-c2cc(NCCc3cc(F)cc4ccccc34)ncn2)ccc1C(=O)O [Example 178, 4-{6-[2-(3-Fluoro-naphthalen-1-yl)-ethylamino]-pyrimidin-4-yl}-2-methylsulfanyl-benzoic acid] | 871 nM | 142 nM | – | –
9 | CCOc1cc(-c2cc(NCCc3c(OC)ccc4c3ccn4C)ncn2)ccc1C(=O)O [Example 186, 2-Ethoxy-4-{6-[2-(5-methoxy-1-methyl-1H-indol-4-yl)-ethylamino]-pyrimidin-4-yl}-benzoic acid] | 500 nM | 9 nM | – | –
10 | CSc1cc(-c2cc(NCCc3cccc4c(F)cccc34)ncn2)ccc1C(=O)O [Example 172, 4-{6-[2-(5-Fluoro-naphthalen-1-yl)-ethylamino]-pyrimidin-4-yl}-2-methylsulfanyl-benzoic acid] | 605 nM | 45 nM | – | –
11 | CCOc1ccc2sccc2c1CCNc1cc(-c2ccc(C(=O)O)c(SC)c2)ncn1 [Example 177, 4-{6-[2-(5-Ethoxy-benzo[b]thiophen-4-yl)-ethylamino]-pyrimidin-4-yl}-2-methylsulfanyl-benzoic acid] | 334 nM | 4 nM | – | –
12 | CSc1cc(-c2cc(NCCc3c(Br)cc(F)c4ccccc34)ncn2)ccc1C(=O)O [Example 170, 4-{6-[2-(2-Bromo-4-fluoro-naphthalen-1-yl)-ethylamino]-pyrimidin-4-yl}-2-methylsulfanyl-benzoic acid] | 407 nM | 474 nM | – | –
13 | COc1ccc2ccn(C)c2c1CCNc1cc(-c2ccc(C(=O)O)c(SC)c2)ncn1 [Example 168, 4-{6-[2-(6-Methoxy-1-methyl-1H-indol-7-yl)-ethylamino]-pyrimidin-4-yl}-2-methylsulfanyl-benzoic acid] | 108 nM | 93 nM | – | –
14 | CSc1cc(-c2cc(NCCc3ccc(Br)c4ccn(C)c34)ncn2)ccc1C(=O)O [Example 169, 4-{6-[2-(4-Bromo-1-methyl-1H-indol-7-yl)-ethylamino]-pyrimidin-4-yl}-2-methylsulfanyl-benzoic acid] | 350 nM | 230 nM | – | –
15 | CCOc1cc(-c2cc(NCCc3c(OC)ccc4c3ccn4C)ncn2)ccc1CC(=O)O [Example 167, (2-Ethoxy-4-{6-[2-(5-methoxy-1-methyl-1H-indol-4-yl)-ethylamino]-pyrimidin-4-yl}-phenyl)-acetic acid] | 758 nM | 69 nM | – | –
16 | CCOc1cc(-c2cc(NCCc3ccc(Br)c4ccccc34)ncn2)ccc1CC(=O)O [Example 162, (4-{6-[2-(4-Bromo-naphthalen-1-yl)-ethylamino]-pyrimidin-4-yl}-2-ethoxy-phenyl)-acetic acid] | 114 nM | 219 nM | – | –
17 | CCOc1cc(-c2cc(NCCc3ccc(Br)c4ccn(C)c34)ncn2)ccc1CC(=O)O [Example 161, (4-{6-[2-(4-Bromo-1-methyl-1H-indol-7-yl)-ethylamino]-pyrimidin-4-yl}-2-ethoxy-phenyl)-acetic acid] | 363 nM | 628 nM | – | –
18 | COc1ccc2cc(F)cc(CCNc3cc(-c4cc(C(F)(F)F)c(C(=O)O)s4)ncn3)c2n1 [Example 152, 5-{6-[2-(6-Fluoro-2-methoxy-quinolin-8-yl)-ethylamino]-pyrimidin-4-yl}-3-trifluoromethyl-thiophene-2-carboxylic acid] | 107 nM | – | 506 nM | 197 nM
19 | CCOc1cc(-c2cc(NCCc3cc(F)cc4sccc34)ncn2)ccc1CC(=O)O [Example 165, (2-Ethoxy-4-{6-[2-(6-fluoro-benzo[b]thiophen-4-yl)-ethylamino]-pyrimidin-4-yl}-phenyl)-acetic acid] | 555 nM | 864 nM | – | –
20 | COc1ccc2sccc2c1CCNc1cc(-c2ccc(C(=O)O)c(SC)c2)ncn1 [Example 174, 4-{6-[2-(5-Methoxy-benzo[b]thiophen-4-yl)-ethylamino]-pyrimidin-4-yl}-2-methylsulfanyl-benzoic acid] | 298 nM | 8 nM | – | –
21 | CCOc1cc(-c2cc(NCCc3ccc(Br)c4ccn(C)c34)ncn2)ccc1C(=O)O [Example 180, 4-{6-[2-(4-Bromo-1-methyl-1H-indol-7-yl)-ethylamino]-pyrimidin-4-yl}-2-ethoxy-benzoic acid] | 235 nM | 441 nM | – | –
22 | CCOc1cc(-c2cc(NCCc3ccc(C)c4ccccc34)ncn2)ccc1CC(=O)O [Example 99, (2-Ethoxy-4-{6-[2-(4-methyl-naphthalen-1-yl)-ethylamino]-pyrimidin-4-yl}-phenyl)-acetic acid] | 177 nM | – | 765 nM | 225 nM
23 | CCOc1cc(-c2cc(NCCc3ccc(C)c4ccccc34)ncn2)ccc1OCC(=O)O [Example 76, (2-Ethoxy-4-{6-[2-(4-methyl-naphthalen-1-yl)-ethylamino]-pyrimidin-4-yl}-phenoxy)-acetic acid] | 66 nM | – | 259 nM | 116 nM
